Measured values published in patent publication US8987216B2, “Polysulfated glycosides and salts thereof” (Teva Hungary Pharmaceutical Marketing Private Limited …, priority 2004, dated 2015).
Counter-ions that a name gives are not always drawn. Like-named read-outs stand apart in the source and are kept apart here.

How the values were obtained:
BN-rats = test: Effect of locally (intratracheally) administered polysulfated glycosides on airways' hyperresponsiveness ex vivo (tracheal contraction to acetylcholine after antigen challenge); format: in vivo, Brown Norway (BN) rats; details: Control 100 ± 0, Placebo 334 ± 68
Method: Brown Norway (BN) rats were actively sensitized to ovalbumin (OA) by a subcutaneous injection of 0.5 ml of OA/A1(OH)3 gel mixture (2 mg OA+10 g A1(OH)3/100 ml saline) on day 1 with subsequent subcutaneous injections (10 mg OA+10 g A1(OH)3/100 ml saline) given on days 14 and 21. On day 28, animals received the compound described in example 4 intratracheally (0.01; 0.1 or 1.0 mg/kg dose) 2 hours before antigen challenge. Antigen challenge was performed by inhalation of nebulised ovalbumin (1% antigen solution administered in a TSE inhalation system for 1 hour). Animals were sacrificed 48 hours post antigen challenge wherein the tracheas were removed to an organ bath. Dissected tracheas were allowed to equilibrate for 30 minutes before measuring tracheal spasmogenic response curves to acetylcholine (Ach).
As shown in Table 1 ovalbumin challenge of sensitized animals in this model caused a significant tracheal hyper-reactivity to acetylcholine, when the response to the spasmogenic agent was determined 48 h after antigen challenge.

BN rats [1] = test: Effect on the allergen stimulated mucus production of airways epithelial cells (PAS(+) cell count in lung sections); format: in vivo, Brown Norway (BN) rats; details: lungs 48 hours after challenge, Control 2.2 ± 0.9, Challenge 15.8 ± 2.8
Method: Sensitized BN rats were treated intratracheally with varying (0.01-1.0 mg/kg) dose of compound described in example 4, two hours before antigenic challenge, using a similar protocol described in Model 1. Lungs were collected 48 hours after challenge and were fixed in 8% phosphate buffered formaldehyde. Samples were then processed for histochemistry routinely. 5 μm thick sections were stained with periodic-acid-Schiff (PAS) reagents and were counterstained with haematoxylineosine. On the sections each epithelial cells of the airways were counted in the whole preparation at a magnification of 400×. The number of PAS(+) [mucus producing] epithelial cells was expressed as the ratio of the total number of epithelial cells.
As it is shown in Table 2, allergen challenge stimulates the mucus production of airways epithelial cells (control vs. challenge).

BN rats [2] = test: Effect on the extent of perivascular oedema developed in asthmatic lung tissue; format: in vivo, Brown Norway (BN) rats; details: Control 55 ± 6, Challenge 209 ± 12
Method: Sensitized BN rats were treated intratracheally with varying (0.01-1.0 mg/kg) dose of compound described in example 4, two hours before antigenic challenge, using a similar protocol described in Model 1. Lungs were collected […] and were fixed in 8% phosphate buffered formaldehyde. Samples were then processed for histochemistry routinely. 5 μm thick sections were stained with periodic-acid-Schiff (PAS) reagents and were counterstained with haematoxylineosine. On the 5 μm sections, the area of the connective tissue around the vasculare was determined and expressed as a ratio of the area of the corresponding blood vessel itself.

IP-3 receptor = molecular target: T1, IP-3 receptor (Rattus norvegicus, UniProt P29994); test: IP-3 receptor antagonistic effect: inhibition of IP3 binding to its receptor in rat cerebellum membrane preparations
T1 construct: determined using rat cerebellum membrane preparations; from tissue; host or cells: rat cerebellum (microsomal membrane preparation)
T1 sequence (P29994 whole entry): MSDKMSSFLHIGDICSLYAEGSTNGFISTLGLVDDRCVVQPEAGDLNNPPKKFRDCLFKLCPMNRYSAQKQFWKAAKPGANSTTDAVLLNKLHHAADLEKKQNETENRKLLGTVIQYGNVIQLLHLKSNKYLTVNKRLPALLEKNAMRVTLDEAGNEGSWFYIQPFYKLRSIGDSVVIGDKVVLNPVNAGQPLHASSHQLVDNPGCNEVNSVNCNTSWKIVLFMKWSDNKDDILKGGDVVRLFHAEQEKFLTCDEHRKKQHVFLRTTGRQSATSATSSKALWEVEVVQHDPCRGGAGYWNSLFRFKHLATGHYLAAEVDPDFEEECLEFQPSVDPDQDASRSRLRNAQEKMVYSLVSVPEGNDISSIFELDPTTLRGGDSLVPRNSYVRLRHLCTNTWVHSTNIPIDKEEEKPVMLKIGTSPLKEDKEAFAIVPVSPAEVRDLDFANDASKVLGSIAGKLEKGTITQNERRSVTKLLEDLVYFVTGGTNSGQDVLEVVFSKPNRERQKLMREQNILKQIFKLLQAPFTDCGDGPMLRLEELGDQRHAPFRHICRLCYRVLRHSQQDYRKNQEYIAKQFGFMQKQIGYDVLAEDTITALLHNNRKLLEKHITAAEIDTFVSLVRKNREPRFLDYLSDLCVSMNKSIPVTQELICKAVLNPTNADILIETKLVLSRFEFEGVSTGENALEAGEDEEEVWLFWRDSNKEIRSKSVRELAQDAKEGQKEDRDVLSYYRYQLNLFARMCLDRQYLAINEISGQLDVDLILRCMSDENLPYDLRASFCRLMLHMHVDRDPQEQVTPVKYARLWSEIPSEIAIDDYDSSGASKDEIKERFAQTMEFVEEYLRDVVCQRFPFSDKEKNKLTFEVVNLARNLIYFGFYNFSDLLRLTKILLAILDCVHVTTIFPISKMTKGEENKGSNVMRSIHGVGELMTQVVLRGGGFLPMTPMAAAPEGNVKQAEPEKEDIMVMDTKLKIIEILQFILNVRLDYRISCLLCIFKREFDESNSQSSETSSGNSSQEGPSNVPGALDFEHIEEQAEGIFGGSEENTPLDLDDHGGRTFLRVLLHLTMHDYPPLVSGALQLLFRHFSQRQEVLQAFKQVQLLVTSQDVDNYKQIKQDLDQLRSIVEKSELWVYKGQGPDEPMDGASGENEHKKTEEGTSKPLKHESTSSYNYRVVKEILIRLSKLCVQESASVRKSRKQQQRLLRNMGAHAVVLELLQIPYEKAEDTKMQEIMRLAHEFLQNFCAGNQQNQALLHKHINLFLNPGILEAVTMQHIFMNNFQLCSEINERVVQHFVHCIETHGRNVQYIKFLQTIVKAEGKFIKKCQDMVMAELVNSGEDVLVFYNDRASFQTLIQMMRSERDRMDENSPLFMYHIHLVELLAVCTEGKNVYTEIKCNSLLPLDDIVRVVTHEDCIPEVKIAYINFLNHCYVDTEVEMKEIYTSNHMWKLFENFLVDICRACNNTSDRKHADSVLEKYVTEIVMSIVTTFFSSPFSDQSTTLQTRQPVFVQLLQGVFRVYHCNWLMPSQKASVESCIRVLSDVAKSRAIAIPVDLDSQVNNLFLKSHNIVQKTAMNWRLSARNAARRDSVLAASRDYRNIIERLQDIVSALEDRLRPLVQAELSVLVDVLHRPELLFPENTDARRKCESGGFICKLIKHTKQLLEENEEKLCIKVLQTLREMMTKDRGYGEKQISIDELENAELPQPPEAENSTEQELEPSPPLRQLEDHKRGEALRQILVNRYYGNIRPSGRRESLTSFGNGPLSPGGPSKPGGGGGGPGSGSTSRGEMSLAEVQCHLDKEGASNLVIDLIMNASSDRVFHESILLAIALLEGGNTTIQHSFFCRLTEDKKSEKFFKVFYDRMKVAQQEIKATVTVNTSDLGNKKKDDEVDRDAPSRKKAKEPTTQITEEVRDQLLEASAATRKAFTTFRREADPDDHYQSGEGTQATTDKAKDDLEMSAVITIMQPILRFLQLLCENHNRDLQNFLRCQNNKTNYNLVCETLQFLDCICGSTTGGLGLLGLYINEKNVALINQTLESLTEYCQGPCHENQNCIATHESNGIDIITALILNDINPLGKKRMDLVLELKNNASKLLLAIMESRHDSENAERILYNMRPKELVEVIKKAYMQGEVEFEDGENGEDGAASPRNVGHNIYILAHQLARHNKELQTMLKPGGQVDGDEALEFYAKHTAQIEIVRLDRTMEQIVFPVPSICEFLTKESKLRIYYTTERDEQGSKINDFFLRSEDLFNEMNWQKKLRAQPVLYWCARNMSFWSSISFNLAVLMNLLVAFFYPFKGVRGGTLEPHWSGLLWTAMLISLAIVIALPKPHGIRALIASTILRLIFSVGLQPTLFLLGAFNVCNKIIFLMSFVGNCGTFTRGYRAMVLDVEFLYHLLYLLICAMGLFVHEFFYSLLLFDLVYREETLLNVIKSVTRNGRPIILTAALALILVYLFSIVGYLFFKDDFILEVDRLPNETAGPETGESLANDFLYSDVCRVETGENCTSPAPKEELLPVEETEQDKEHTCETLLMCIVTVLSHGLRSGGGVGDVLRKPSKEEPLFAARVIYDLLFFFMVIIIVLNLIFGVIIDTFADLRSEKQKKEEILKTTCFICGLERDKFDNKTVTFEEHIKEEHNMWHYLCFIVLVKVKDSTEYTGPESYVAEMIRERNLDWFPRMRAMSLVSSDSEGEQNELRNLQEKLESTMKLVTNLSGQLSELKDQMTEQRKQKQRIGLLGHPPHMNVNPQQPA
Method: Glycosides of the present invention, depending on their chemical structure, inhibit the binding of inositol-1,4,5-trisphosphate (IP3) to its receptor in microsomal membrane preparations. As IP3 is a messenger molecule playing distinguished role in the activation of different cells, interfering with this function can explain the anti-asthmatic effect of these polysulfated glycosides.
The IP3 antagonist effect of the polysulfated glycosides were determined using rat cerebellum membrane preparations according to Worley et al. (JBC 262, 12132, 1987).

[3] = 0.01 mg/kg intratracheally two hours before antigenic challenge
[4] = 0.1 mg/kg intratracheally two hours before antigenic challenge

Structure (SMILES): O=S(=O)(O)OC[C@H](OS(=O)(=O)O)[C@@H](O[C@@H]1O[C@H](COS(=O)(=O)O)[C@@H](OS(=O)(=O)O)[C@H](OS(=O)(=O)O)[C@H]1OS(=O)(=O)O)[C@H](OS(=O)(=O)O)[C@@H](COS(=O)(=O)O)OS(=O)(=O)O [Example 4, 1,2,4,5,6-penta-O-sulfato-3-O-(2,3,4,6-tetra-β-sulfato-β-D-glucopyranosyl)-D-glucitol nona potassium salt]
- MAX: Contraction at maximal Ach concentration relative to control (mean ± SEM) (BN-rats; 0.01 mg/kg intratracheally 2 hours before ovalbumin challenge): 134 ± 26
- MAX: Contraction at maximal Ach concentration relative to control (mean ± SEM) (BN-rats; 1.0 mg/kg intratracheally 2 hours before ovalbumin challenge): 116 ± 37
- number of PAS(+) cells as percent of total number of cells (average ± SEM) (BN rats [1]; [3]): 15.0 ± 2.7%
- number of PAS(+) cells as percent of total number of cells (average ± SEM) (BN rats [1]; [4]): 6.3 ± 1.5%
- Oedema: area of oedema relative to area of vasculature (average ± SEM) (BN rats [2]; [3]): 113 ± 7
- Oedema: area of oedema relative to area of vasculature (average ± SEM) (BN rats [2]; [4]): 106 ± 8
- IC50 (IP-3 receptor; read-out: Average IC50): 163 nM
- IC50 (IP-3 receptor; read-out: IC 50 (μg/ml) Average ± SEM (n) (converted)): 216 nM
